# Measurements reported in ChEMBL document CHEMBL3994622, “Design and synthesis of new RAF kinase-inhibiting antiproliferative quinoline derivatives. Part 2: Diarylurea derivatives” (Eur J Med Chem, 2017).
# Columns and labels:
# A549 = experiment: Growth inhibition of human A549/ATCC cells incubated for 48 hrs by sulforhodamine B assay; type: functional; details: A549, 48 h
# DU-145 = experiment: Growth inhibition of human DU145 cells incubated for 48 hrs by sulforhodamine B assay; type: functional; details: DU-145, 48 h
# SK-MEL-28 = experiment: Growth inhibition of human SK-MEL-28 cells incubated for 48 hrs by sulforhodamine B assay; type: functional; details: SK-MEL-28, 48 h
# UO-31 = experiment: Growth inhibition of human UO31 cells incubated for 48 hrs by sulforhodamine B assay; type: functional; details: UO-31, 48 h
# RXF 393 = experiment: Growth inhibition of human RXF393 cells incubated for 48 hrs by sulforhodamine B assay; type: functional; details: RXF 393, 48 h
# SF-295 = experiment: Growth inhibition of human SF295 cells incubated for 48 hrs by sulforhodamine B assay; type: functional; details: SF-295, 48 h
# HCT-116 = experiment: Growth inhibition of human HCT116 cells incubated for 48 hrs by sulforhodamine B assay; type: functional; details: HCT-116, 48 h
# MDA-MB-231 = experiment: Growth inhibition of human MDA-MB-231 cells incubated for 48 hrs by sulforhodamine B assay; type: functional; details: MDA-MB-231, 48 h
# U-251 = experiment: Growth inhibition of human U251 cells incubated for 48 hrs by sulforhodamine B assay; type: functional; details: U-251, 48 h
# LOX IMVI = experiment: Growth inhibition of human LOXIMVI cells incubated for 48 hrs by sulforhodamine B assay; type: functional
# 786-0 = experiment: Growth inhibition of human 786-0 cells incubated for 48 hrs by sulforhodamine B assay; type: functional; details: 786-0, 48 h
# SW-620 = experiment: Growth inhibition of human SW620 cells incubated for 48 hrs by sulforhodamine B assay; type: functional; details: SW-620, 48 h
# RPMI-8226 = experiment: Growth inhibition of human RPMI8226 cells incubated for 48 hrs by sulforhodamine B assay; type: functional; details: RPMI-8226, 48 h
# SR = experiment: Growth inhibition of human SR cells incubated for 48 hrs by sulforhodamine B assay; type: functional
# NCI-H23 = experiment: Growth inhibition of human NCI-H23 cells incubated for 48 hrs by sulforhodamine B assay; type: functional; details: NCI-H23, 48 h
# SNB-75 = experiment: Growth inhibition of human SNB75 cells incubated for 48 hrs by sulforhodamine B assay; type: functional; details: SNB-75, 48 h
# OVCAR-3 = experiment: Growth inhibition of human OVCAR3 cells incubated for 48 hrs by sulforhodamine B assay; type: functional; details: OVCAR-3, 48 h
# PC-3 = experiment: Growth inhibition of human PC3 cells incubated for 48 hrs by sulforhodamine B assay; type: functional; details: PC-3, 48 h
# T47D = experiment: Growth inhibition of human T47D cells incubated for 48 hrs by sulforhodamine B assay; type: functional
# ACHN = experiment: Growth inhibition of human ACHN cells incubated for 48 hrs by sulforhodamine B assay; type: functional
# KM12 = experiment: Growth inhibition of human KM12 cells incubated for 48 hrs by sulforhodamine B assay; type: functional; details: KM12, 48 h
# HOP-92 = experiment: Growth inhibition of human HOP92 cells incubated for 48 hrs by sulforhodamine B assay; type: functional; details: HOP-92, 48 h
# SF-539 = experiment: Growth inhibition of human SF539 cells incubated for 48 hrs by sulforhodamine B assay; type: functional; details: SF-539, 48 h
# [1] = target: RAF proto-oncogene serine/threonine-protein kinase (Homo sapiens, UniProt P04049); experiment: Inhibition of human c-RAF at 10 uM using MEK1 as substrate in presence of [33P]ATP by Hotspot assay relative to control
# Chain of RAF proto-oncogene serine/threonine-protein kinase (P04049 whole entry): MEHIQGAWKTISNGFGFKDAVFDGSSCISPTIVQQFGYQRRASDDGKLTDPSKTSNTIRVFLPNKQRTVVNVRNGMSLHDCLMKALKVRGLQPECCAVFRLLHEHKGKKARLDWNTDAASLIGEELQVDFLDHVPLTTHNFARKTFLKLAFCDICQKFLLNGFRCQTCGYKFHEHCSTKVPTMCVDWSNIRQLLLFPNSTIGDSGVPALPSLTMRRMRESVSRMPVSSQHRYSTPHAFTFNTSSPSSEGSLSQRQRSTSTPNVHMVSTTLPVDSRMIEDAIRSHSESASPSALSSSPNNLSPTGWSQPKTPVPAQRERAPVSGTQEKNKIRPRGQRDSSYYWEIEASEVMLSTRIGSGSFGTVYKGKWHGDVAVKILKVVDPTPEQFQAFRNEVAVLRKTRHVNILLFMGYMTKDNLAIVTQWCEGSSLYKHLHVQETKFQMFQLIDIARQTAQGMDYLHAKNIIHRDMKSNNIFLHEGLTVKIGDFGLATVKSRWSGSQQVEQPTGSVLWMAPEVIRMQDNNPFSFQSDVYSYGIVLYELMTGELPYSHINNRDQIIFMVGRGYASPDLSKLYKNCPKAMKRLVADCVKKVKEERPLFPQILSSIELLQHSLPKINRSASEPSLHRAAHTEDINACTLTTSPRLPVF
# UACC-257 = experiment: Growth inhibition of human UACC257 cells incubated for 48 hrs by sulforhodamine B assay; type: functional; details: UACC-257, 48 h
# OVCAR-8 = experiment: Growth inhibition of human OVCAR8 cells incubated for 48 hrs by sulforhodamine B assay; type: functional; details: OVCAR-8, 48 h
# BT-549 = experiment: Growth inhibition of human BT549 cells incubated for 48 hrs by sulforhodamine B assay; type: functional; details: BT-549, 48 h
# HT-29 = experiment: Growth inhibition of human HT-29 cells incubated for 48 hrs by sulforhodamine B assay; type: functional; details: HT-29, 48 h
# TK-10 = experiment: Growth inhibition of human TK10 cells incubated for 48 hrs by sulforhodamine B assay; type: functional; details: TK-10, 48 h
# HL-60(TB) = experiment: Growth inhibition of human HL-60(TB) cells incubated for 48 hrs by sulforhodamine B assay; type: functional; details: HL-60, 48 h
# K562 = experiment: Growth inhibition of human K562 cells incubated for 48 hrs by sulforhodamine B assay; type: functional; details: K562, 48 h
# [2] = read-out: LC50 (the source's name)
smiles,measurement,setting,value
COc1cc2cc(Oc3ccc(NC(=O)Nc4cccc(C(F)(F)F)c4)cc3)c(C)nc2cc1OC,GI50,A549,1.47 µM
same,TGI,A549,6.49 µM
same,CC50,A549; [2],26.6 µM
same,GI50,DU-145,2.78 µM
same,TGI,DU-145,15.8 µM
same,CC50,DU-145; [2],> 50 µM
same,GI50,SK-MEL-28,1.97 µM
same,TGI,SK-MEL-28,8.37 µM
same,CC50,SK-MEL-28; [2],28.2 µM
same,GI50,UO-31,1.98 µM
same,TGI,UO-31,10.8 µM
same,CC50,UO-31; [2],> 50 µM
same,GI50,RXF 393,1.63 µM
same,TGI,RXF 393,4.97 µM
same,CC50,RXF 393; [2],26.3 µM
same,GI50,SF-295,1.13 µM
same,TGI,SF-295,3.59 µM
same,CC50,SF-295; [2],27.2 µM
same,GI50,HCT-116,1.46 µM
same,LC50 (50% lethal concentration),HCT-116,20.4 µM
same,TGI,HCT-116,5.84 µM
same,GI50,MDA-MB-231,1.13 µM
same,TGI,MDA-MB-231,4.15 µM
same,CC50,MDA-MB-231; [2],18.6 µM
same,GI50,U-251,1.56 µM
same,TGI,U-251,5.61 µM
same,CC50,U-251; [2],17 µM
same,GI50,LOX IMVI,1.84 µM
same,TGI,LOX IMVI,6.61 µM
same,CC50,LOX IMVI; [2],18.3 µM
same,GI50,786-0,1.74 µM
same,TGI,786-0,9.24 µM
same,CC50,786-0; [2],> 50 µM
same,GI50,SW-620,2.28 µM
same,LC50,SW-620,> 50 µM
same,TGI,SW-620,11.1 µM
same,GI50,RPMI-8226,1.05 µM
same,"LC50 (lethal concentration, 50% cell kill)",RPMI-8226,> 50 µM
same,TGI,RPMI-8226,2.96 µM
same,GI50,SR,1.17 µM
same,TGI,SR,3.33 µM
same,CC50,SR; [2],32 µM
same,GI50,NCI-H23,1.7 µM
same,TGI,NCI-H23,7.41 µM
same,CC50,NCI-H23; [2],> 50 µM
same,GI50,SNB-75,1.17 µM
same,TGI,SNB-75,6.18 µM
same,CC50,SNB-75; [2],> 50 µM
same,GI50,OVCAR-3,2.04 µM
same,TGI,OVCAR-3,8.07 µM
same,CC50,OVCAR-3; [2],39.9 µM
same,GI50,PC-3,1.39 µM
same,TGI,PC-3,5.49 µM
same,CC50,PC-3; [2],30.4 µM
same,GI50,T47D,1.61 µM
same,TGI,T47D,6.68 µM
same,CC50,T47D; [2],> 50 µM
same,GI50,ACHN,1.64 µM
same,TGI,ACHN,7.71 µM
same,CC50,ACHN; [2],> 50 µM
same,GI50,KM12,1.42 µM
same,TGI,KM12,5.92 µM
same,CC50,KM12; [2],36.1 µM
same,GI50,HOP-92,1.26 µM
same,LC50,HOP-92,21.2 µM
same,TGI,HOP-92,3.96 µM
same,GI50,SF-539,2.48 µM
same,TGI,SF-539,8.74 µM
same,CC50,SF-539; [2],25.4 µM
same,inhibition,[1],99.2%
same,GI50,UACC-257,1.09 µM
same,TGI,UACC-257,3.66 µM
same,CC50,UACC-257; [2],19.9 µM
same,GI50,OVCAR-8,1.71 µM
same,TGI,OVCAR-8,6.28 µM
same,CC50,OVCAR-8; [2],19.9 µM
same,GI50,BT-549,1.43 µM
same,TGI,BT-549,6.18 µM
same,CC50,BT-549; [2],28.2 µM
same,GI50,HT-29,2.05 µM
same,TGI,HT-29,6.26 µM
same,CC50,HT-29; [2],17.8 µM
same,GI50,TK-10,2.26 µM
same,TGI,TK-10,9.93 µM
same,CC50,TK-10; [2],> 50 µM
same,GI50,HL-60(TB),1.56 µM
same,TGI,HL-60(TB),3.91 µM
same,CC50,HL-60(TB); [2],> 50 µM
same,GI50,K562,1.73 µM
same,LC50 (concentration killing 50% of cells),K562,> 50 µM
same,TGI,K562,14 µM
